For data set [1], the system named is Candida albicans. The data set is described as follows: Induction of morphological changes in Candida albicans ATCC SC5314 assessed as ribosome abscission measured for 48 to 72 hrs by transmission electron microscopic analysis. The format is functional, organism-based. As to conditions: time 48-72 hrs.
In data set [2] the test system is Candida albicans. The experiment in a line: Induction of morphological changes in Candida albicans ATCC SC5314 assessed as edema cavitation measured for 48 to 72 hrs by transmission electron microscopic analysis. The format is functional, organism-based. As to conditions: time 48-72 hrs.
Data set [3] relates to Candida albicans. The data set is described as follows: Induction of morphological changes in Candida albicans ATCC SC5314 assessed as cell leakage measured for 96 hrs by transmission electron microscopic analysis. The format is functional, organism-based.
The species entered for data set [4] is Mus musculus. The experiment in a line: Antiinflammatory activity against mouse infected with Candida albicans ATCC SC5314 assessed as reduction in COX-2 expression in spleen in presence of naproxen by Western blot analysis. The format is functional. More on the design: scale not given: the % may be the effect or the level left.
The subject of data set [5] is Candida albicans. The experiment in a line: Antifungal activity against fluconazole- resistant Candida albicans 901 assessed as fungal growth inhibition measured after 72 hrs in presence of naproxen by double dilution method. The format is functional.
Data set [6] relates to Candida albicans. The data set is described as follows: Antifungal activity against fluconazole- resistant Candida albicans 17# assessed as fungal growth inhibition measured after 72 hrs in presence of naproxen by double dilution method. The format is functional.
In data set [7] the test system is Candida albicans. The experiment in a line: Antifungal activity against Candida albicans ATCC SC5314 assessed as fungal growth inhibition measured after 72 hrs in presence of naproxen by double dilution method. The class given is functional.
The species named for data set [8] is Mus musculus. The experiment in a line: Antiinflammatory activity in mouse infected with Candida albicans ATCC SC5314 assessed as reduction in MMP-9 expression in spleen in presence of naproxen by hematoxylin staining based inverted microscopic analysis. The format is functional.
Data set [9] has as its system Candida albicans. The experiment in a line: Antifungal activity against fluconazole- resistant Candida albicans CaR assessed as fungal growth inhibition measured after 72 hrs in presence of naproxen by double dilution method. The format is functional.
The nature of data set [10]: Toxicity in Candida albicans ATCC SC5314 infected-mouse assessed as effect on body weight at 10 ug per 20 g, ip administered on day 2, 4, 6, 8, 10 and 12 and measured on day 14 in presence of naproxen. The class given is organism-based. As to conditions: in vivo, 336 h, dose 10 µg, time 14 day.
In data set [11] the test system is Candida albicans. The experiment in a line: Antifungal actvity against Candida albicans ATCC SC5314 infected in mouse assessed as reduction in infection at 10 ug per 20 g, ip administered on day 2, 4, 6, 8, 10 and 12 and measured on day 14 in presence of naproxen. As to conditions: time 14.0 day. The class given is functional, organism-based.
Data set [12] is filed under the species Mus musculus. The data set is described as follows: Immunostimulatory activity in mouse infected with Candida albicans ATCC SC5314 assessed as reduction in PD-L1 expression in spleen in presence of naproxen by western blot analysis relative to control. The class given is functional. More on the design: scale not given: the % may be the effect or the level left. (In general: In western blotting, separated proteins are transferred to a membrane and probed.)

A short description of data set [13]: Toxicity in mouse infected with Candida albicans assessed as BUN level in plasma at 10 ug per 20 g, ip administered on day 2, 4, 6, 8, 10 and 12 and measured on day 14 in presence of naproxen (reference value: 8.2 +/- 0.5 mmol/L). As to conditions: in vivo, 336 h, dose 10 µg, time 14 day. The format is organism-based.
Data set [14] is filed under the species Mus musculus. The data set is described as follows: Immunostimulatory activity in mouse infected with Candida albicans ATCC SC5314 assessed as increase in CD8+ expression level in spleen in presence of naproxen by immunohistochemical analysis. The class given is functional, organism-based.

Activity calls are given as the source filed them. No cut-off for these calls is given here.

With `COc1ccc2cc([C@H](C)C(=O)NC(Cn3cncn3)C(=O)c3ccccc3)ccc2c1` (some centres undefined), the outcome in the data set on Candida albicans [1], with Candida albicans [2] and in the data set with Candida albicans [3] was Active.

On to `OC(Cn1cncn1)(Cn1cncn1)c1ccc(F)cc1F` [FLUCONAZOLE], for which the Activity is 39.43% in the data set listed under Mus musculus [4]; 26.05 a.u in the data set filed under Mus musculus [8]; “Non-Toxic” in data set [10]; 14.27% in the data set filed under Mus musculus [12]; 9.5 IU/L in [13]. The MIC50 (commonly the lowest concentration that inhibits either 50% of growth or 50% of the strains tested, depending on the study) in the data set with Candida albicans [5] is 4 µg/mL; in the data set on Candida albicans [6] it was 4 µg/mL; with Candida albicans [7] it was 0.25 µg/mL; in the data set on Candida albicans [9], 2 µg/mL. Further, the result in the data set with Candida albicans [11] and in the data set filed under Mus musculus [14] was Active.

The values are drawn from ChEMBL document CHEMBL5113529, “Design, Synthesis, and Biological Evaluation of Dual-Target COX-2/CYP51 Inhibitors for the Treatment of Fungal Infectious Diseases” (J Med Chem, 2022).
